Test results as given in patent US9695155B2, “Herbicidal substituted pyrimidinyloxy benzene compounds” (E. I. DU PONT DE NEMOURS AND COMPANY, priority 2013, dated 2017).

What was measured:
lambsquarters = assay: Test C postemergence; type: in vivo, Chenopodium album; details: for Plant response rating, Lambsquarters: scale 0 to 100 (0 no effect, 100 complete control)
Method in brief: (§1)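 Injury was assessed visually against controls 13 to 15 days after application, with 0 meaning no effect and 100 full control; missing entries are shown as a dash. Preemergence sprays hit seeded loam–sand soil, postemergence sprays hit 1- to 4-leaf plants.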

velvetleaf [1] = assay: Test C postemergence; type: in vivo, Abutilon theophrasti; details: for Plant response rating, Velvetleaf: scale 0 to 100 (0 no effect, 100 complete control)
Method in brief: as §1

corn [2] = assay: Test C preemergence; type: in vivo, Zea mays; details: for Corn plant response rating: preemergence; for Plant response rating, Corn: Preemergence, 31 g ai/ha, scale 0 to 100, 0 no effect, 100 complete control
Method in brief: as §1

corn [3] = assay: Test A preemergence; type: in vivo, Zea mays; details: for Plant response rating, Corn: 125 g ai/ha, 0 to 100 scale where 0 is no effect and 100 is complete control; for Corn plant response rating: 500 g ai/ha, 0 to 100 scale, 0 no effect, 100 complete control, approx. 10 days
Method in brief: (§2)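 Compounds in non-phytotoxic solvent with surfactant applied as soil spray preemergence, or postemergence to plants 2-10 cm at one- to two-leaf stage, in loam/sand. After approximately 10 days in greenhouse, injury rated visually versus untreated controls, 0 (no effect) to 100 (complete control).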

velvetleaf [4] = assay: Test A preemergence; type: in vivo, Abutilon theophrasti; details: for Plant response rating, Velvetleaf: 125 g ai/ha, 0 to 100 scale where 0 is no effect and 100 is complete control
Method in brief: as §2

galium = assay: Test C postemergence; type: in vivo, Galium aparine
Method in brief: as §1

Italian ryegrass = assay: Test C postemergence; type: in vivo, Lolium multiflorum; details: for Plant response rating, Ryegrass, Italian: scale 0 to 100 (0 no effect, 100 complete control)
Method in brief: as §1

wheat = assay: Test A postemergence; type: in vivo, Triticum aestivum; details: 0 to 100 scale where 0 is no effect and 100 is complete control
Method in brief: as §2

sedge, umbrella = assay: Test B flooded paddy test; type: in vivo, Cyperus difformis; details: Flood, 250 g ai/ha; 0 to 100 scale where 0 is no effect and 100 is complete control
Method in brief: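 Scores from 0 (no effect) to 100 (complete control) are visual comparisons with controls, taken 13 to 15 days after compound was applied into floodwater 3 cm deep around 2-leaf plants.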

velvetleaf [5] = assay: Test C preemergence; type: in vivo, Abutilon theophrasti; details: for Velvetleaf plant response rating: preemergence; for Plant response rating, Velvetleaf: Preemergence, 31 g ai/ha, scale 0 to 100, 0 no effect, 100 complete control
Method in brief: as §1

pigweed = assay: Test C preemergence; type: in vivo, Amaranthus retroflexus; details: for Pigweed plant response rating: preemergence; for Plant response rating, Pigweed: Preemergence, 31 g ai/ha, scale 0 to 100, 0 no effect, 100 complete control
Method in brief: as §1

wheat, winter = assay: Test C postemergence; type: in vivo, Triticum aestivum; details: for Plant response rating, Wheat: scale 0 to 100 (0 no effect, 100 complete control)
Method in brief: as §1

blackgrass = assay: Test C preemergence; type: in vivo, Alopecurus myosuroides; details: for Blackgrass plant response rating: preemergence; for Plant response rating, Blackgrass: Preemergence, 31 g ai/ha, scale 0 to 100, 0 no effect, 100 complete control
Method in brief: as §1

oilseed rape = assay: Test C postemergence; type: in vivo, Brassica napus; details: for Plant response rating, Oilseed Rape: scale 0 to 100 (0 no effect, 100 complete control)
Method in brief: as §1

barnyardgrass = assay: Test C postemergence; type: in vivo, Echinochloa crus-galli
Method in brief: as §1

[6] = 125 g ai/ha, postemergence, visual rating
[7] = 16 g ai/ha, scale 0 to 100 (0 no effect, 100 complete control)
[8] = 62 g ai/ha, scale 0 (no effect) to 100 (complete control)
[9] = 125 g ai/ha, scale 0 (no effect) to 100 (complete control)
[10] = 16 g ai/ha, postemergence, visual rating, scale 0 to 100 (0 no effect, 100 complete control), 13 to 15 days
[11] = 125 g ai/ha, postemergence, visual rating, scale 0 to 100 (0 no effect, 100 complete control)
[12] = Postemergence, 62 g ai/ha, scale 0 to 100 (0 no effect, 100 complete control)
[13] = Postemergence, 31 g ai/ha, scale 0 to 100 (0 no effect, 100 complete control), 13 to 15 days
[14] = Postemergence, 31 g ai/ha, 13 to 15 days
[15] = 250 g ai/ha, scale 0 (no effect) to 100 (complete control)

N#Cc1cnn(-c2c(C#N)cccc2Oc2ncc(F)cn2)c1 [Compound 111]
Plant response rating, Lambsquarters (lambsquarters; [6]): 90 | Plant response rating, Lambsquarters (lambsquarters; Postemergence, 62 g ai/ha): 80 | Plant response rating, Velvetleaf (velvetleaf [1]; [6]): 80 | Plant response rating, Velvetleaf (velvetleaf [1]; Postemergence, 62 g ai/ha): 75 | Corn plant response rating (corn [2]; [7]): 5 | Corn plant response rating (corn [2]; [8]): 5 | Corn plant response rating (corn [2]; [9]): 65 | Plant response rating, Corn (corn [2]): 5 | Plant response rating, Corn (corn [3]): 20 | Corn plant response rating (corn [3]): 50 | Plant response rating, Velvetleaf (velvetleaf [4]): 70 | Galium plant response rating (galium; [10]): 80 | Plant response rating, Galium (galium; [11]): 100 | Plant response rating, Galium (galium; [12]): 90 | Plant response rating, Ryegrass, Italian (Italian ryegrass; [6]): 0 | Plant response rating, Ryegrass, Italian (Italian ryegrass; Postemergence, 62 g ai/ha): 0 | Plant response rating, Wheat (wheat; 500 g ai/ha): 80 | Plant response rating, Sedge, Umbrella (sedge, umbrella): 75 | Velvetleaf plant response rating (velvetleaf [5]; [7]): 60 | Velvetleaf plant response rating (velvetleaf [5]; [8]): 90 | Velvetleaf plant response rating (velvetleaf [5]; [9]): 100 | Plant response rating, Velvetleaf (velvetleaf [5]): 60 | Pigweed plant response rating (pigweed; [7]): 75 | Pigweed plant response rating (pigweed; [8]): 100 | Pigweed plant response rating (pigweed; [9]): 100 | Plant response rating, Pigweed (pigweed): 95 | Plant response rating, Wheat (wheat, winter; [6]): 5 | Plant response rating, Wheat (wheat, winter; Postemergence, 62 g ai/ha): 0 | Blackgrass plant response rating (blackgrass; [7]): 20 | Blackgrass plant response rating (blackgrass; [8]): 40 | Blackgrass plant response rating (blackgrass; [9]): 90 | Plant response rating, Blackgrass (blackgrass): 10 | Plant response rating, Oilseed Rape (oilseed rape; [6]): 80 | Plant response rating, Oilseed Rape (oilseed rape; Postemergence, 62 g ai/ha): 60 | Barnyardgrass plant response rating (barnyardgrass; [10]): 5 | Plant response rating, Barnyardgrass (barnyardgrass; [11]): 35 | Plant response rating, Barnyardgrass (barnyardgrass; [13]): 5 | Plant response rating, Barnyardgrass (barnyardgrass; [12]): 5

N#Cc1cccc(Oc2ncc(F)cn2)c1-n1cc(Cl)cn1 [Compound 73]
Plant response rating (0 to 100), Lambsquarters (lambsquarters; 125 g ai/ha, postemergence): 70 | Plant response rating (0 to 100), Lambsquarters (lambsquarters; 250 g ai/ha, postemergence): 80 | Plant response rating, Lambsquarters (lambsquarters; [14]): 25 | Plant response rating, Lambsquarters (lambsquarters; Postemergence, 62 g ai/ha): 55 | Plant response rating (0 to 100), Velvetleaf (velvetleaf [1]; 125 g ai/ha, postemergence): 50 | Plant response rating (0 to 100), Velvetleaf (velvetleaf [1]; 250 g ai/ha, postemergence): 70 | Plant response rating, Velvetleaf (velvetleaf [1]; [14]): 30 | Plant response rating, Velvetleaf (velvetleaf [1]; Postemergence, 62 g ai/ha): 30 | Corn plant response rating (corn [2]; [8]): 0 | Corn plant response rating (corn [2]; [9]): 5 | Corn plant response rating (corn [2]; [15]): 70 | Plant response rating, Corn (corn [2]): 0 | Plant response rating, Corn (corn [3]): 20 | Corn plant response rating (corn [3]): 70 | Plant response rating, Velvetleaf (velvetleaf [4]): 100 | Velvetleaf plant response rating (velvetleaf [4]; 500 g ai/ha, 0 to 100 scale, 0 no effect, 100 complete control, approx. 10 days): 100 | Plant response rating (0 to 100), Galium (galium; 125 g ai/ha, postemergence): 70 | Plant response rating (0 to 100), Galium (galium; 250 g ai/ha, postemergence): 70 | Plant response rating, Galium (galium; [13]): 40 | Plant response rating, Galium (galium; [12]): 55 | Plant response rating (0 to 100), Ryegrass, Italian (Italian ryegrass; 125 g ai/ha, postemergence): 0 | Plant response rating (0 to 100), Ryegrass, Italian (Italian ryegrass; 250 g ai/ha, postemergence): 5 | Plant response rating, Ryegrass, Italian (Italian ryegrass; [14]): 0 | Plant response rating, Ryegrass, Italian (Italian ryegrass; Postemergence, 62 g ai/ha): 0 | Plant response rating, Wheat (wheat; 125 g ai/ha): 20 | Plant response rating, Wheat (wheat; 500 g ai/ha): 50 | Plant response rating, Sedge, Umbrella (sedge, umbrella): 85 | Velvetleaf plant response rating (velvetleaf [5]; [8]): 75 | Velvetleaf plant response rating (velvetleaf [5]; [9]): 100 | Velvetleaf plant response rating (velvetleaf [5]; [15]): 100 | Plant response rating, Velvetleaf (velvetleaf [5]): 60 | Pigweed plant response rating (pigweed; [8]): 100 | Pigweed plant response rating (pigweed; [9]): 100 | Pigweed plant response rating (pigweed; [15]): 100 | Plant response rating, Pigweed (pigweed): 100 | Plant response rating (0 to 100), Wheat (wheat, winter; 125 g ai/ha, postemergence): 0 | Plant response rating (0 to 100), Wheat (wheat, winter; 250 g ai/ha, postemergence): 5 | Plant response rating, Wheat (wheat, winter; [14]): 0 | Plant response rating, Wheat (wheat, winter; Postemergence, 62 g ai/ha): 0 | Blackgrass plant response rating (blackgrass; [8]): 80 | Blackgrass plant response rating (blackgrass; [9]): 90 | Blackgrass plant response rating (blackgrass; [15]): 90 | Plant response rating, Blackgrass (blackgrass): 0 | Plant response rating (0 to 100), Oilseed Rape (oilseed rape; 125 g ai/ha, postemergence): 60 | Plant response rating (0 to 100), Oilseed Rape (oilseed rape; 250 g ai/ha, postemergence): 80 | Plant response rating, Oilseed Rape (oilseed rape; [14]): 10 | Plant response rating, Oilseed Rape (oilseed rape; Postemergence, 62 g ai/ha): 30 | Plant response rating (0 to 100), Barnyardgrass (barnyardgrass; 125 g ai/ha, postemergence): 10 | Plant response rating (0 to 100), Barnyardgrass (barnyardgrass; 250 g ai/ha, postemergence): 35 | Plant response rating, Barnyardgrass (barnyardgrass; [13]): 0 | Plant response rating, Barnyardgrass (barnyardgrass; [12]): 0
